# Values quoted from earlier work, collected in US20200188436A1, “Compositions and Methods for Cancer Immunotherapy” (The UAB Research Foundation, priority 2016, published 2020).
# Columns and labels:
# [1] = test system: diffuse large B-cell lymphoma (DLBCL); settings: phase II, DLBCL after autologous stem cell transplantation; preliminary results
# recurrent multifocal GBM = settings: two pediatric patients, refractory to standard therapies, single agent
Substance,subjects alive [1],subjects progression-free at the end of the follow-up period [1],clinical response (recurrent multifocal GBM)
CT-011: humanized IgG1 monoclonal antibody against PD-1,82%,70%,–
"nivolumab: immune checkpoint inhibitor, anti-PD1 antibody",–,–,remarkable and durable responses
